The source of these data is publication PMC7655540, “Accumulation of Target Gene Mutations Confers Multiple Resistance to ALS, ACCase, and EPSPS Inhibitors in Lolium Species in Chile” (Frontiers in Plant Science, 2020).

One assay has as its system EPSPS. Put plainly: phosphate release, EnzCheck phosphate assay, […] nm. The note with it: S population; partially purified leaf extract; pH 7.0; read-out: I50. Format: biochemical, Lolium perenne.
The target of assay [1] is T1, ACCase (Lolium multiflorum, UniProt A0AAD8WR50).
T1 construct: gene QYE76_038327; native enzyme, young leaf extract, ammonium sulfate fraction, desalted; isoforms not separated
The assay can be described thus: ATP-dependent incorporation of […]-bicarbonate into malonyl-CoA. Format: biochemical. The note with it: S population; partially purified leaf extract; 5 mM acetyl-CoA, pH 8.3, 34°C; diclofop-acid per methods; read-out: I50.

Assay [2] has as its target T2, ACCase (Lolium perenne, UniProt Z9B5O7SYH2).
T2 construct: native enzyme, young leaf extract, ammonium sulfate fraction, desalted; isoforms not separated
The assay is described as above. It counts as biochemical. The note with it: S population; partially purified leaf extract; 5 mM acetyl-CoA, pH 8.3, 34°C; diclofop-acid per methods; read-out: I50.

The target in assay [3] is T2, ACCase. Described as above. Particulars: R population extract, heterogeneous alleles; 5 mM acetyl-CoA, pH 8.3, 34°C; stated gain; read-out: I50. Format: biochemical.

Like-named read-outs stand apart in the source and are kept apart here.

T1 sequence (A0AAD8WR50 1-2320): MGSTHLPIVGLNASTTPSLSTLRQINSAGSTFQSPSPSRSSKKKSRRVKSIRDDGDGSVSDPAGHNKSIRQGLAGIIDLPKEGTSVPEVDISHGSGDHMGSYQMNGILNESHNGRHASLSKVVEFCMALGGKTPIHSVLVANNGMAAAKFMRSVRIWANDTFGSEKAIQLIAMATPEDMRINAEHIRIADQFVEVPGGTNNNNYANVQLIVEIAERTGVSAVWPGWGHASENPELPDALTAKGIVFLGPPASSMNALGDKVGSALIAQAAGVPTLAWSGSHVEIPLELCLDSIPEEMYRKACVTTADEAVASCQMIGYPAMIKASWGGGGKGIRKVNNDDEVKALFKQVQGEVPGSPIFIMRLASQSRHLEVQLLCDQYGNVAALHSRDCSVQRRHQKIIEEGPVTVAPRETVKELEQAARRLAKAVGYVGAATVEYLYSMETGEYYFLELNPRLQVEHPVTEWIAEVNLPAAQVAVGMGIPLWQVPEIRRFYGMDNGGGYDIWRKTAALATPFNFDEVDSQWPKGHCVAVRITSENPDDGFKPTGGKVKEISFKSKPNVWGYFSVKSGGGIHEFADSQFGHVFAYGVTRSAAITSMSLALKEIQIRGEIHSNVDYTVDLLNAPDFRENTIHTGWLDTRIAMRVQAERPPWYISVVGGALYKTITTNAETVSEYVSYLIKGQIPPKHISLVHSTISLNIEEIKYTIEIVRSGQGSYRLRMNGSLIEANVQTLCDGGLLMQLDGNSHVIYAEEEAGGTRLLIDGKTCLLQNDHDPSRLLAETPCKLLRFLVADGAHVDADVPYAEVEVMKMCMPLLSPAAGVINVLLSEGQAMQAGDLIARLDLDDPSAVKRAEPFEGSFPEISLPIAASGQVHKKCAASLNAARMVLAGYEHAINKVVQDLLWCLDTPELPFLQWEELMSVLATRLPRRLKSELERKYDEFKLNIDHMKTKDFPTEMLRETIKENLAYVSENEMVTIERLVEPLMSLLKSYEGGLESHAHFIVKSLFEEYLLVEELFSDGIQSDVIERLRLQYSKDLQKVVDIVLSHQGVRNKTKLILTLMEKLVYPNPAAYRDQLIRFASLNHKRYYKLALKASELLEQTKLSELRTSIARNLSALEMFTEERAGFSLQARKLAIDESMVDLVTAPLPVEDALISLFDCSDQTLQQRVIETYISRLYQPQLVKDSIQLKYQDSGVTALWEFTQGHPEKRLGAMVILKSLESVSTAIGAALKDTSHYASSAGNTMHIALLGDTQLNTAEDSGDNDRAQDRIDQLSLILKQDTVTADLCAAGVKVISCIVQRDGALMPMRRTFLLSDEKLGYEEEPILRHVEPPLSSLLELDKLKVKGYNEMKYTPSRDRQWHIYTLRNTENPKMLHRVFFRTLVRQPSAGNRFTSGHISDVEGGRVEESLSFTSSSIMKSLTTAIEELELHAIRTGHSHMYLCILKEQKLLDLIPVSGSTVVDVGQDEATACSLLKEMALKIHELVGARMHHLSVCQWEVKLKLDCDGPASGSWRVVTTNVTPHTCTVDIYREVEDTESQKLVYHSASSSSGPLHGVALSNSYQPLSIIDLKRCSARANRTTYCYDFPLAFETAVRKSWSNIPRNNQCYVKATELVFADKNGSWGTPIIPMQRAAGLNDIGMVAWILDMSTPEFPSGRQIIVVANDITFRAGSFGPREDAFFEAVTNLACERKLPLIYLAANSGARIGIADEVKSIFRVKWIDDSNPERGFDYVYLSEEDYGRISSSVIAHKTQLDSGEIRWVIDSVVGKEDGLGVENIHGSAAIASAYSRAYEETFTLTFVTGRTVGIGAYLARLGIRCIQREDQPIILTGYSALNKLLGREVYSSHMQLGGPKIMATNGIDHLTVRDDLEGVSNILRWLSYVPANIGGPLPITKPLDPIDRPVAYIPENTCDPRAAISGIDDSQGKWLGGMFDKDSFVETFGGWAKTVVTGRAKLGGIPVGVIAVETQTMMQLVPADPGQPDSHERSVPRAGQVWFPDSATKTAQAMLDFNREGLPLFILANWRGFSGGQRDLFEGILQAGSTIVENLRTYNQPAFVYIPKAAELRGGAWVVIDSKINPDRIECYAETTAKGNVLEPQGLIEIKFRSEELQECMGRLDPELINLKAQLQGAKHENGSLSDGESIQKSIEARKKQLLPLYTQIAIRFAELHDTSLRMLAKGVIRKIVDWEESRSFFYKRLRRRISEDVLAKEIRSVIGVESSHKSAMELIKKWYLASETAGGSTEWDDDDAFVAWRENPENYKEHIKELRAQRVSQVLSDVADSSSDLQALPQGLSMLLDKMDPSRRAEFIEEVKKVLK

Consider `O=C(O)CNCP(=O)(O)O` [glyphosate], for which, in the assay with EPSPS, the IC50 came to 7.8 µM.

As to `CC(Oc1ccc(Oc2ccc(Cl)cc2Cl)cc1)C(=O)O` (stereo not shown) [diclofop-acid], the IC50 was determined as 4.6 µM on ACCase [1], 6.2 µM on ACCase [2] and 68.6 µM at ACCase [3].
